This is an account of results in patent US12441730B2, “PRMT5 inhibitors” (Merck Sharp & Dohme LLC, priority 2019, dated 2025).

Like-named read-outs stand apart in the source and are kept apart here.

For experiment [1], the target named is T1, Full-length (FL)-PRMT5-MEP50 enzyme complex (Homo sapiens, UniProt O14744).
T1 construct: Full-length (FL)-PRMT5-MEP50 enzyme complex (recombinant proteins from baculovirus-transfected Sf21 cells: FL-PRMT5; MW=73837 kDa and FL-MEP50; MW=38614); made in house; host or cells: baculovirus-transfected Sf21 cells
The experiment can be described thus: PRMT5-MEP50 Enzyme Methylation Assay (Version A). It is filed as biochemical. How it is done:
PRMT5-MEP50 Enzyme Methylation Assay (Version A)
PRMT5-MEP50 biochemical assay is a direct measurement of the methylation activity of the enzyme complex on a short peptide substrate derived from the N-terminus of H4 histone. Methylation experiment was performed with recombinant PRMT5-MEP50 protein complex. The assessment of inhibitory effect of small molecules was measured by the effectiveness of the compounds to inhibit this reaction (EC50).
In this assay, the potency (EC50) of each compound was determined from a twenty-point (1:2 serial dilution; top compound concentration of 100000 nM) titration curve using the following outlined procedure. To each well of a white ProxiPlus 384 well-plate, 100 nL of compound (1% DMSO in final assay volume of 10 μL) was dispensed, followed by the addition of 8 μL of 1× assay buffer (50 mM Bicine pH 8.0, 1 mM DTT, 0.004% Tween20, 0.01% BSA) containing 1.25 nM of Full-length (FL)-PRMT5-MEP50 enzyme complex (recombinant proteins from baculovirus-transfected Sf21 cells: FL-PRMT5; MW=[…] and FL-MEP50; MW=38614) and 1 μL of 150 μM S-(5′-Adenosyl)-L-Methionine Chloride (SAM). A plate were sealed and placed in a 37° C. humidified chamber for a 60 minutes pre-incubation with compound. Subsequently, each reaction was initiated by the addition of 1 μL 1× assay buffer containing 750 nM biotinylated H4R3(Me1) peptide. The final reaction in each well of 10 μL consists of 1.0 nM PRMT5-MEP50, 75 nM biotinylated-peptide, and 15 μM SAM. Methylation reactions were allowed to proceed for 150 minutes in a sealed plate at 37° C. Reactions were immediately quenched by the addition of 1 μL of 5% formic acid. A plate was then frozen and shipped to SAMDI™ Tech Inc. to determine the percent conversion from H4R3(Me1) to H4R3(Me2). Dose-response curves were generated by plotting percent effect (% product conversion; Y-axis) vs. Log 10 compound concentrations (X-axis). EC50 values were determined by non-linear regression according to models for either sigmoidal (4 parameters) or biphasic (7 parameters) dose-response curves.

Experiment [2] concerns symmetric dimethylation of arginine (SDMA) of PRMT5 substrates in MCF-7 cells. The experiment can be described thus: PRMT5 Cell Target Engagement (TE) Assay. It is filed as cell-based. As to conditions: 3 days treatment, SDMA high content imaging. The source says: PRMT5 Cell Target Engagement (TE) Assay
The PRMT5 TE assay is a biomarker assay for identifying compounds that inhibit symmetric dimethylation of arginine (SDMA) of PRMT5 substrates. The following substrates have been reported for PRMT5: histone H2A and H4 R3, Histone H3 R2, Histone H3 R8, spliceosome Sm proteins, ribosomal protein RPS10, p53, FEN1, nucleoplasmin, nucleolin, EGFR and EBNA. The assay focuses on detecting symmetrically dimethylated nuclear proteins using high content imaging technology. Detection of the expression of symmetrically dimethylated nuclear proteins is through a mixture of primary rabbit monoclonal antibodies to SDMA (CST 13222), which in turn recognized by an Alexafluor 488 dye-conjugated anti-rabbit IgG secondary antibody. The IN Cell Analyzer 2200 or Opera-Phenix measures nuclear Alexafluor 488 fluorescent dye intensity that is directly related to the level of expression of symmetrically dimethylated nuclear proteins at the single cell level. Nuclear AF488 dye intensities are compared to the mean value for DMSO treated cells (MIN) to report percent of inhibition for each compound-treated well.
In this assay, the cell potency (EC50) of each compound was determined from a ten point (1:3 serial dilution; top compound concentration of 10000 nM) titration curve using the following outlined procedure. Each well of a BD falcon collagen coated black/clear bottom 384-well plate was seeded with 4000 MCF-7 cells in 30 μl media and allowed to attach for 5 h. Media is ATCC-formulated Eagle's Minimum Essential Medium, Catalog No. 30-2003. To make the complete growth medium, the following components were added to the base medium: 0.01 mg/mL human recombinant insulin; fetal bovine serum to a final concentration of 10%. Additional 30 μl of media containing 2× compounds were added to each well. Cells were treated for 3 days in 37° C. CO2 incubator. On day 3, cells were fixed with Cytofix, permeabilized with 0.4% Triton-X-100/Cytofix, and washed with D-PBS without Ca/Mg. Cells were blocked with Licor Odessey blocking reagent for 1 h at room temperature, followed by incubation with anti-SDMA (1:1000) antibody at 4° C. overnight. 1° antibody was removed, followed by three washings with DPBS without Ca/Mg and 0.05% Tween20. Hoechst (5 μg/mL), Cell Mask deep stain (1:2000) and Alexa488-conjugated goat anti-rabbit IgG (2 μg/mL) was added for 1 h at room temperature. A final washing step (three washes) was performed before sealing plate for imaging on In Cell Analyzer 2200 or Opera-Phenix. Images from analyzer were uploaded to Columbus (at WP or BOS) for image analysis. IC50 values were determined by 4 parameters robust fit of percent fluorescence units vs. (Log10) compound concentrations.

Setting [3] is: second value of 7 parameter biphasic fit, read-out: Enzyme Methylation Assay Version A (EC50 2).
[4] abbreviates: single EC50 = 4 parameter single site sigmoidal fit, EC50 1 = first value of 7 parameter biphasic fit, read-out: Enzyme Methylation Assay Version A (EC50 or EC50 1).

T1 sequence (O14744 whole entry): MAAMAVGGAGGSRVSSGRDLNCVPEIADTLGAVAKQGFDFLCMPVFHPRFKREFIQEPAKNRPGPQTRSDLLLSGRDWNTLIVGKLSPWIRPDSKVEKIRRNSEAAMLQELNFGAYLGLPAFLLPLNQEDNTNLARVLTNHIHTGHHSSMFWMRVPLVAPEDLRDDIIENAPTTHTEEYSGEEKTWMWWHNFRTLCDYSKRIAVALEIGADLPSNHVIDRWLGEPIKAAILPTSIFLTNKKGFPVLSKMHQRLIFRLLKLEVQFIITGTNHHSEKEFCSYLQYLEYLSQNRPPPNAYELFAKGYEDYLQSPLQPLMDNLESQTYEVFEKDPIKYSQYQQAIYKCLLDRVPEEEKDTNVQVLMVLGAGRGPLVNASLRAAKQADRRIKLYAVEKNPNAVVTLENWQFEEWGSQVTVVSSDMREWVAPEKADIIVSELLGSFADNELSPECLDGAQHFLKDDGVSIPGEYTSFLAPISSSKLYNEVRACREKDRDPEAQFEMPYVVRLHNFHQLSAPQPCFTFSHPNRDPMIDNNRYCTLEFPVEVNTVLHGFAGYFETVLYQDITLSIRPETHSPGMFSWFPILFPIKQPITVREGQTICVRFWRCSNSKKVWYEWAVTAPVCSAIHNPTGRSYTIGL
T1 sequence (Q9BQA1 whole entry partner): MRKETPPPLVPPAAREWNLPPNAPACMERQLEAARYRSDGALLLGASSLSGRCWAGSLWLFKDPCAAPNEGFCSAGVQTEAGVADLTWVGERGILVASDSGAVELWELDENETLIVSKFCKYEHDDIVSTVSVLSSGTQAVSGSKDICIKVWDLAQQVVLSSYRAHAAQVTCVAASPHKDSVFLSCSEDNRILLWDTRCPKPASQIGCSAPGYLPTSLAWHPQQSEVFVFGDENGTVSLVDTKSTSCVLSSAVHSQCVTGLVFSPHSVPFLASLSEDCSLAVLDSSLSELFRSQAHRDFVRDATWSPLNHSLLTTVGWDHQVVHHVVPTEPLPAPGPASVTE

For the compound `Cc1cc2nnc(C(=O)N3CC[C@]4(Cc5ccccc5CN4)[C@H](O)C3)c(C)n2n1` [Example 184, (4,7-dimethylpyrazolo[5,1-c][1,2,4]triazin-3-yl)((3R,3′R)-3′-hydroxy-1,4-dihydro-2H-spiro[isoquinoline-3,4′-piperidin]-1′-yl)methanone], the EC50 came out at 21900 nM in experiment [1] (setting [3]); 16.2 nM in experiment [1] (setting [4]); 995 nM in experiment [2] (Homo sapiens, MCF7, 72 h).
Turning to `CO[C@H](C)c1cc(N2Cc3ncsc3C2)cn2cc(C(=O)N3CC[C@]4(Cc5ccccc5CN4)[C@H](O)C3)nc12` [Example 235, {6-(4,6-dihydro-5H-pyrrolo[3,4-d][1,3]thiazol-5-yl)-8-[(1R)-1-methoxyethyl]imidazo[1,2-a]pyridin-2-yl}[(3R,3′R)-3′-hydroxy-1,4-dihydro-1′H,2H-spiro[isoquinoline-3,4′-piperidin]-1′-yl]methanone], the EC50 in experiment [1] (setting [4]) is 20.6 nM; in experiment [2] (Homo sapiens, MCF7, 72 h) it was 62.7 nM.
On to `O=C(c1cnc2ncc(C(F)(F)F)cn12)N1CC[C@]2(Cc3ccccc3CN2)[C@H](O)C1` [Example 168, [(3R,3′R)-3′-hydroxy-1,4-dihydro-1′H,2H-spiro[isoquinoline-3,4′-piperidin]-1′-yl][6-(trifluoromethyl)imidazo[1,2-a]pyrimidin-3-yl]methanone], for which the EC50 stood at 385 nM in experiment [1] (setting [3]); 2.56 nM in experiment [1] (setting [4]); 50.2 nM in experiment [2] (Homo sapiens, MCF7, 72 h).
As for `CC1CC(C(F)(F)F)Cn2cc(C(=O)N3CC[C@]4(Cc5ccccc5CN4)[C@H](O)C3)nc21` (single isomer, unassigned) [Example 167, ((3R,3′R)-3′-hydroxy-1,4-dihydro-2H-spiro[isoquinoline-3,4′-piperidin]-1′-yl)((6R,8R or 6S,8S)-8-methyl-6-(trifluoromethyl)-5,6,7,8-tetrahydroimidazo[1,2-a]pyridin-2-yl)methanone], the EC50 was 3630 nM in experiment [1] (setting [3]), 9.55 nM in experiment [1] (setting [4]) and 194 nM in experiment [2].
As to `Cc1cn2cc(C(=O)N3CC[C@]4(Cc5ccccc5CN4)[C@H](O)C3)nc2c(Br)n1` [Example 138, (8-bromo-6-methylimidazo[1,2-a]pyrazin-2-yl)[(3R,3′R)-3′-hydroxy-1,4-dihydro-1′H,2H-spiro[isoquinoline-3,4′-piperidin]-1′-yl]methanone], the EC50 is 202 nM in experiment [1] (setting [4]) and 322 nM in experiment [2] (Homo sapiens, MCF7, 72 h).
Turning to `COCC1CC(C)Cn2cc(C(=O)N3CC[C@]4(Cc5ccccc5CN4)[C@H](O)C3)nc21` (single isomer, unassigned) [Example 159], the EC50 was found to be 22400 nM in experiment [1] (setting [3]), 61.7 nM in experiment [1] (setting [4]) and 527 nM in experiment [2].
In the case of `COc1nc(C)ccc1C(=O)N1CC[C@]2(Cc3ccccc3CN2)[C@H](O)C1` [Example 205, [(3R,3′R)-3′-hydroxy-1,4-dihydro-1′H,2H-spiro[isoquinoline-3,4′-piperidin]-1′-yl](2-methoxy-6-methyl-3-pyridinyl)methanone], the EC50 amounted to 2750 nM in experiment [1] (setting [3]); 2.8 nM in experiment [1] (setting [4]); 324 nM in experiment [2] (Homo sapiens, MCF7, 72 h).
Consider `CC1OC(=O)Nc2cc(C(=O)N3CC[C@]4(Cc5ccccc5CN4)[C@H](O)C3)ccc21` (stereo partly drawn) [compound 171, 7-{[(3R,3′R)-3′-hydroxy-1,4-dihydro-1′H,2H-spiro[isoquinoline-3,4′-piperidin]-1′-yl]carbonyl}-4-methyl-1,4-dihydro-2H-3,1-benzoxazin-2-one], for which the EC50 in experiment [1] (setting [3]) is 733 nM; in experiment [1] (setting [4]) it was 0.929 nM; in experiment [2] (Homo sapiens, MCF7, 72 h) it was 6.47 nM.
For `CO[C@H](C)c1cc(N(C)CCn2ccnc2C)cn2cc(C(=O)N3CC[C@]4(Cc5ccccc5CN4)[C@H](O)C3)nc12` [Example 233, [(3R,3′R)-3′-hydroxy-1,4-dihydro-1′H,2H-spiro[isoquinoline-3,4′-piperidin]-1′-yl](8-[(1R)-1-methoxyethyl]-6-{methyl[2-(2-methyl-1H-imidazol-1-yl)ethyl]amino}imidazo[1,2-a]pyridin-2-yl)methanone], the EC50 in experiment [1] (setting [4]) came to 3.69 nM; in experiment [2] (Homo sapiens, MCF7, 72 h) it was 76.2 nM.
Take `Cc1nc2ncc(C(=O)N3CC[C@]4(Cc5ccccc5CN4)[C@H](O)C3)n2cc1Br` [Example 140, (6-bromo-7-methylimidazo[1,2-a]pyrimidin-3-yl)[(3R,3′R)-3′-hydroxy-1,4-dihydro-1′H,2H-spiro[isoquinoline-3,4′-piperidin]-1′-yl]methanone]: the concentration for a half-maximal effect (EC50) is 1390 nM in experiment [1] (setting [4]) and 2090 nM in experiment [2] (Homo sapiens, MCF7, 72 h).
On to `Cc1c(C2CC2)cnc2nc(C(=O)N3CC[C@]4(Cc5ccccc5CN4)[C@H](O)C3)cn12` [Example 64, (6-cyclopropyl-5-methylimidazo[1,2-a]pyrimidin-2-yl)[(3R,3′R)-3′-hydroxy-1,4-dihydro-1′H,2H-spiro[isoquinoline-3,4′-piperidin]-1′-yl]methanone], for which the EC50 came to 9770 nM in experiment [1] (setting [3]); 19.1 nM in experiment [1] (setting [4]); 756 nM in experiment [2] (Homo sapiens, MCF7, 72 h).
`O=C(c1cn2cccc(Cl)c2n1)N1CC[C@]2(Cc3ccccc3CN2)[C@H](O)C1` [Example 206, (8-chloroimidazo[1,2-a]pyridin-2-yl)[(3R,3′R)-3′-hydroxy-1,4-dihydro-1′H,2H-spiro[isoquinoline-3,4′-piperidin]-1′-yl]methanone]: the EC50 in experiment [1] (setting [3]) turned out to be 7240 nM; in experiment [1] (setting [4]) it was 4.33 nM; in experiment [2] (Homo sapiens, MCF7, 72 h), 363 nM.
Regarding `O=C(c1cnc2ncc(Br)cn12)N1CC[C@]2(Cc3ccccc3CN2)[C@H](O)C1` [Example 25, (6-bromoimidazo[1,2-a]pyrimidin-3-yl)((3R,3’R)-3′-hydroxy-1,4-dihydro-1′H,2H-spiro[isoquinoline-3,4′-piperidin]-1′-yl)methanone], the EC50 in experiment [1] (setting [3]) turned out to be 2040 nM; in experiment [1] (setting [4]) it was 7.12 nM; in experiment [2] (Homo sapiens, MCF7, 72 h), 30.2 nM.
Take `Cc1ccc2nc(C(=O)N3CC[C@]4(Cc5ccccc5CN4)[C@H](O)C3)cn2c1` [Example 40, ((3R,3’R)-3′-hydroxy-1,4-dihydro-2H-spiro[isoquinoline-3,4′-piperidin]-1′-yl)(6-methylimidazo[2,2-a]pyridin-2-yl)methanone]: the EC50 in experiment [1] (setting [3]) is 468 nM; in experiment [1] (setting [4]), 0.814 nM; in experiment [2] (Homo sapiens, MCF7, 72 h) it was 8.7 nM.
The like results for `O=C(c1ccn(CC(F)(F)F)c(=O)c1)N1CC[C@]2(Cc3ccccc3CN2)[C@H](O)C1` [Example 45, 4-((3R,3′R)-3′-hydroxy-1,4-dihydro-2H-spiro[isoquinoline-3,4′-piperidine]-1′-carbonyl)-1-(2,2,2-trifluoroethyl)pyridin-2(1H)-one] were, in that order, 16000 nM, 70 nM and 224 nM.

The term EC50 denotes the concentration that produces a half-maximal response.
